The test system of this experiment is HL-60. As to the kind of experiment: Induction of mitochondrial membrane potential loss in human HL60 cells at 1.5 uM after 24 hrs by JC-1 staining-based flow cytometry (reference value: 28.6%). The experiment is classed as functional. (In flow cytometry, cells or beads pass a laser one at a time.)

Regarding `O=C(Nc1ccc([As]2SCCCS2)cc1)c1ccccc1O`, the Activity amounted to 71.8%.

For the origin of these results see ChEMBL document CHEMBL4138191, “Organic arsenicals target thioredoxin reductase followed by oxidative stress and mitochondrial dysfunction resulting in apoptosis” (Eur J Med Chem, 2018).
